Measured values taken from US20230133580A1, “MENTHOL-CONTAINING COMPOSITION” (SUNSHO PHARMACEUTICAL CO., LTD., priority 2020, published 2023).
Where a name gives a salt, the structure may show the parent alone.

Assays:
[1] = l-Menthol dissolution test; type: physicochemical; conditions: for Dissolution: stored at 20° C.
Description: The solution was stored at 20° C. and evaluated based on the time during which the solution was maintained in a liquid state without solidifying.
A sample that solidified before being cooled down to 20° C. [e.g., during the process of cooling down to a temperature below the melting point of l-menthol (generally 42 to 45° C.)] or immediately (e.g., within 30 minutes) after being stored at 20° C. was rated D. A sample that was maintained as a solution for a while (e.g., more than 30 minutes) but solidified in less than 24 hours was rated C.

[2] = Encapsulation test C (interfacial tension against purified water); type: physicochemical; conditions: for interfacial tension: against purified water
Description: The interfacial tension was measured with the force tensiometer SIGMA 702 (KSV Instruments LTD).

[3] = menthol concentration ranging 70 to 50 wt %
[4] = menthol concentration ranging 60 to 50 wt %
[5] = samples containing 80 to 50 wt % l-menthol

SMILES	Dissolution ([1]; l-Menthol 50, solvent 50 pbw)	Dissolution ([1]; l-Menthol 60, solvent 40 pbw)	Dissolution ([1]; l-Menthol 70, solvent 30 pbw)	ability to dissolve menthol (rating) [1, 3]	ability to dissolve menthol (rating) [1, 4]	other results
CCOCCOCC [1,2-Diethoxyethane]	A (A sample that did not solidify in 10 days or more was rated A)	A (A sample that did not solidify in 10 days or more was rated A)	A (A sample that did not solidify in 10 days or more was rated A)	A (A sample that did not solidify in 10 days or more was rated A)	–	–
CC(=O)OCCCCCCOC(C)=O [1,6-Diacetoxyhexane]	A (A sample that did not solidify in 10 days or more was rated A)	A (A sample that did not solidify in 10 days or more was rated A)	C (A sample that was maintained as a solution for a while (e.g., more than 30 minutes) but solidified in less than 24 hours was rated C)	–	A (A sample that did not solidify in 10 days or more was rated A)	–
CC(=O)OCCCCCCCCOC(C)=O [1,8-Diacetoxyoctane]	A (A sample that did not solidify in 10 days or more was rated A)	C (A sample that was maintained as a solution for a while (e.g., more than 30 minutes) but solidified in less than 24 hours was rated C)	C (A sample that was maintained as a solution for a while (e.g., more than 30 minutes) but solidified in less than 24 hours was rated C)	–	–	ability to dissolve menthol (rating) ([1]; menthol concentration of 50%): A (A sample that did not solidify in 10 days or more was rated A)
OCc1ccccc1 [Benzyl alcohol]	–	–	–	–	–	Dissolution ([1]; l-Menthol 80, solvent 20 pbw): A (A sample that did not solidify in 10 days or more was rated A)
O=C(OCc1ccccc1)c1ccccc1 [Benzyl benzoate]	B (A sample that solidified in 24 hours or more but less than 10 days was rated B)	C (A sample that was maintained as a solution for a while (e.g., more than 30 minutes) but solidified in less than 24 hours was rated C)	C (A sample that was maintained as a solution for a while (e.g., more than 30 minutes) but solidified in less than 24 hours was rated C)	–	–	ability to dissolve menthol (rating) ([1]; menthol concentration of 50%): B (A sample that solidified in 24 hours or more but less than 10 days was rated B)
CCOC(=O)/C=C/C(=O)OCC [Diethyl fumarate]	A (A sample that did not solidify in 10 days or more was rated A)	A (A sample that did not solidify in 10 days or more was rated A)	C (A sample that was maintained as a solution for a while (e.g., more than 30 minutes) but solidified in less than 24 hours was rated C)	–	A (A sample that did not solidify in 10 days or more was rated A)	–
CCOC(=O)CC(=O)OCC [Diethyl malonate]	B (A sample that solidified in 24 hours or more but less than 10 days was rated B)	B (A sample that solidified in 24 hours or more but less than 10 days was rated B)	B (A sample that solidified in 24 hours or more but less than 10 days was rated B)	–	–	Dissolution ([1]; l-Menthol 80, solvent 20 pbw): B (A sample that solidified in 24 hours or more but less than 10 days was rated B); ability to dissolve menthol (rating) ([1]; regardless of the menthol concentration): B (A sample that solidified in 24 hours or more but less than 10 days was rated B); interfacial tension [2, 5]: ≥ 5 mN/m
CCOC(=O)CCCCCCCCC(=O)OCC [Diethyl sebacate]	A (A sample that did not solidify in 10 days or more was rated A)	A (A sample that did not solidify in 10 days or more was rated A)	A (A sample that did not solidify in 10 days or more was rated A)	A (A sample that did not solidify in 10 days or more was rated A)	–	Dissolution ([1]; l-Menthol 80, solvent 20 pbw): C (A sample that was maintained as a solution for a while (e.g., more than 30 minutes) but solidified in less than 24 hours was rated C); interfacial tension ([2]; samples containing 70 to 50 wt % l-menthol): ≥ 5 mN/m
CCOC(=O)CCC(=O)OCC [Diethyl succinate]	A (A sample that did not solidify in 10 days or more was rated A)	A (A sample that did not solidify in 10 days or more was rated A)	A (A sample that did not solidify in 10 days or more was rated A)	A or B	–	Dissolution ([1]; l-Menthol 80, solvent 20 pbw): C (A sample that was maintained as a solution for a while (e.g., more than 30 minutes) but solidified in less than 24 hours was rated C); interfacial tension [2, 5]: ≥ 5 mN/m; Interfacial tension rating ([2]; l-Menthol 50, solvent 50 pbw): A (a sample having an interfacial tension of 5 mN/m or more was rated A); Interfacial tension rating ([2]; l-Menthol 60, solvent 40 pbw): A (a sample having an interfacial tension of 5 mN/m or more was rated A); Interfacial tension rating ([2]; l-Menthol 70, solvent 30 pbw): A (a sample having an interfacial tension of 5 mN/m or more was rated A); Interfacial tension rating ([2]; l-Menthol 80, solvent 20 pbw): A (a sample having an interfacial tension of 5 mN/m or more was rated A)
CCCCOCCOCCOCCCC [Diethylene glycol dibutyl ether]	A (A sample that did not solidify in 10 days or more was rated A)	A (A sample that did not solidify in 10 days or more was rated A)	C (A sample that was maintained as a solution for a while (e.g., more than 30 minutes) but solidified in less than 24 hours was rated C)	–	A (A sample that did not solidify in 10 days or more was rated A)	–
CC(C)COC(=O)CCCCC(=O)OCC(C)C [Diisobutyl adipate]	A (A sample that did not solidify in 10 days or more was rated A)	A (A sample that did not solidify in 10 days or more was rated A)	A (A sample that did not solidify in 10 days or more was rated A)	A (A sample that did not solidify in 10 days or more was rated A)	–	Dissolution ([1]; l-Menthol 80, solvent 20 pbw): C (A sample that was maintained as a solution for a while (e.g., more than 30 minutes) but solidified in less than 24 hours was rated C)
CCCCCCCCCC(=O)OCC [Ethyl decanoate]	A (A sample that did not solidify in 10 days or more was rated A)	A (A sample that did not solidify in 10 days or more was rated A)	C (A sample that was maintained as a solution for a while (e.g., more than 30 minutes) but solidified in less than 24 hours was rated C)	–	A (A sample that did not solidify in 10 days or more was rated A)	–
CCCCCCCCCCCC(=O)OCC [Ethyl laurate]	A (A sample that did not solidify in 10 days or more was rated A)	A (A sample that did not solidify in 10 days or more was rated A)	C (A sample that was maintained as a solution for a while (e.g., more than 30 minutes) but solidified in less than 24 hours was rated C)	–	A (A sample that did not solidify in 10 days or more was rated A)	–
CCCCCCCCCCCCCCCC(=O)OCC [Ethyl palmitate]	B (A sample that solidified in 24 hours or more but less than 10 days was rated B)	B (A sample that solidified in 24 hours or more but less than 10 days was rated B)	C (A sample that was maintained as a solution for a while (e.g., more than 30 minutes) but solidified in less than 24 hours was rated C)	–	B (A sample that solidified in 24 hours or more but less than 10 days was rated B)	–
CC(=O)OCCOC(C)=O [Ethylene glycol diacetate]	C (A sample that was maintained as a solution for a while (e.g., more than 30 minutes) but solidified in less than 24 hours was rated C)	C (A sample that was maintained as a solution for a while (e.g., more than 30 minutes) but solidified in less than 24 hours was rated C)	C (A sample that was maintained as a solution for a while (e.g., more than 30 minutes) but solidified in less than 24 hours was rated C)	–	–	–
CCCCOCCOCCCC [Ethylene glycol dibutyl ether]	A (A sample that did not solidify in 10 days or more was rated A)	A (A sample that did not solidify in 10 days or more was rated A)	A (A sample that did not solidify in 10 days or more was rated A)	A (A sample that did not solidify in 10 days or more was rated A)	–	–
CCNCCCCCCNCC [N,N′-diethyl-1,6-hexanediamine]	A (A sample that did not solidify in 10 days or more was rated A)	A (A sample that did not solidify in 10 days or more was rated A)	A (A sample that did not solidify in 10 days or more was rated A)	A (A sample that did not solidify in 10 days or more was rated A)	–	–
CCCC(=O)OCC(COC(=O)CCC)OC(=O)CCC [Tributyrin]	B (A sample that solidified in 24 hours or more but less than 10 days was rated B)	C (A sample that was maintained as a solution for a while (e.g., more than 30 minutes) but solidified in less than 24 hours was rated C)	C (A sample that was maintained as a solution for a while (e.g., more than 30 minutes) but solidified in less than 24 hours was rated C)	–	–	ability to dissolve menthol (rating) ([1]; menthol concentration of 50%): B (A sample that solidified in 24 hours or more but less than 10 days was rated B)
CCOC(=O)CC(O)(CC(=O)OCC)C(=O)OCC [Triethyl citrate]	C (A sample that was maintained as a solution for a while (e.g., more than 30 minutes) but solidified in less than 24 hours was rated C)	C (A sample that was maintained as a solution for a while (e.g., more than 30 minutes) but solidified in less than 24 hours was rated C)	C (A sample that was maintained as a solution for a while (e.g., more than 30 minutes) but solidified in less than 24 hours was rated C)	–	–	–
